Test results reported in patent US20100203043A1, “TREATMENT AND DIAGNOSIS OF METASTATIC PROSTATE CANCER WITH INHIBITORS OF EPIDERMAL GROWTH FACTOR RECEPTOR (EGFR)” (priority 2007, published 2010).

System: LNCaP cells
Experiment: Kinase activity profiling (PamChip peptide arrays) of LNCaP cells treated with synthetic androgen analog
Type: cell-based, human
Design: key to ZAP70_y492/y493 phosphopeptide fold change (log2) relative to LNCaP baseline / RASA_y460 phosphopeptide fold change (log2) relative to LNCaP baseline / RET_y1029 phosphopeptide fold change (log2) relative to LNCaP baseline / IRS2_y919 phosphopeptide fold change (log2) relative to LNCaP baseline / JAK1_y1022/y1023 phosphopeptide fold change (log2) relative to LNCaP baseline / LCK_y394 phosphopeptide fold change (log2) relative to LNCaP baseline / MET_y1230/y1234/y1235 phosphopeptide fold change (log2) relative to LNCaP baseline / PDPK1_y9 phosphopeptide fold change (log2) relative to LNCaP baseline / PDPK1_y373/y376 phosphopeptide fold change (log2) relative to LNCaP baseline / EPHB1_y778 phosphopeptide fold change (log2) relative to LNCaP baseline / ERBB2_y877 phosphopeptide fold change (log2) relative to LNCaP baseline / ERBB2_y1248 phosphopeptide fold change (log2) relative to LNCaP baseline / CDK2_t14/y_5 phosphopeptide fold change (log2) relative to LNCaP baseline / DDRl_y792/y796/y797 phosphopeptide fold change (log2) relative to LNCaP baseline / MAPK10 phosphopeptide fold change (log2) relative to LNCaP baseline / MAPK12_t183/y185 phosphopeptide fold change (log2) relative to LNCaP baseline / PECAM1_y713 phosphopeptide fold change (log2) relative to LNCaP baseline / PRRX2_y214 phosphopeptide fold change (log2) relative to LNCaP baseline / ANXA1_y20/t23 phosphopeptide fold change (log2) relative to LNCaP baseline / CD79A_y182/y188 phosphopeptide fold change (log2) relative to LNCaP baseline / CTTN1_y477/y483 phosphopeptide fold change (log2) relative to LNCaP baseline / CTTN1_y499 phosphopeptide fold change (log2) relative to LNCaP baseline / ENO2_y43 phosphopeptide fold change (log2) relative to LNCaP baseline / EPHA2_y772 phosphopeptide fold change (log2) relative to LNCaP baseline / EPHA7_y608/y614 phosphopeptide fold change (log2) relative to LNCaP baseline / EPOR_y368 phosphopeptide fold change (log2) relative to LNCaP baseline / EPOR_y426 phosphopeptide fold change (log2) relative to LNCaP baseline / FER_y714 phosphopeptide fold change (log2) relative to LNCaP baseline / FES_y713 phosphopeptide fold change (log2) relative to LNCaP baseline / FGFR2_y769 phosphopeptide fold change (log2) relative to LNCaP baseline / FGFR3_y760 phosphopeptide fold change (log2) relative to LNCaP baseline / FRK_y387 phosphopeptide fold change (log2) relative to LNCaP baseline / LAT_y255 phosphopeptide fold change (log2) relative to LNCaP baseline / EGFR_y1110 phosphopeptide fold change (log2) relative to LNCaP baseline / NTRK2_y702/y706/y707 phosphopeptide fold change (log2) relative to LNCaP baseline / PDGFRB_y579/y581 phosphopeptide fold change (log2) relative to LNCaP baseline / PDGFRB_y716 phosphopeptide fold change (log2) relative to LNCaP baseline / PIK3R1_y607/s608 phosphopeptide fold change (log2) relative to LNCaP baseline / PXN_y31 phosphopeptide fold change (log2) relative to LNCaP baseline / PXN_y118 phosphopeptide fold change (log2) relative to LNCaP baseline / TEC_y519 phosphopeptide fold change (log2) relative to LNCaP baseline / MST1R_y1353 phosphopeptide fold change (log2) relative to LNCaP baseline / MST1R_y1356/y1360 phosphopeptide fold change (log2) relative to LNCaP baseline / FAK_y576/y577 phosphopeptide fold change (log2) relative to LNCaP baseline / FAK2_y579/y580 phosphopeptide fold change (log2) relative to LNCaP baseline / LAT_y200 phosphopeptide fold change (log2) relative to LNCaP baseline: —: ‘-’ denotes that the change in peptide phosphorylation level was not found to be significant
Conditions: ‘androgenic’: LNCaP cells, 100 nM R1881, 48 h
Protocol: Cell culture conditions. The LNCaP and OHS cell lines were routinely held in RPMI 1640 medium supplemented with 10% fetal bovine serum (FBS) and 2.0 mM glutamine, defined as growth medium. Different ratios of LNCaP cells to OHS cells had been tested in a series of cocultures to find the optimal culturing conditions [Bratland et al., 2003]. Seventy-two hours before start of experimental incubations, LNCaP and OHS cells were seeded in a 10:1 ratio in RPMI containing 2% charcoal-treated FBS and glutamine. After 48 h, this medium was changed to RPMI containing 0.5% charcoal-treated FBS and glutamine, defined as experimental medium, for another 24 h before experimental incubations were started (at time 0). Monocultures of LNCaP cells were identically incubated prior to experimental incubations.
Monocultures of LNCaP, as well as LNCaP/OHS cocultures, were seeded in a total number of 1.0×10^6 cells in 75 cm2 cell flasks and invariably held in 10 ml medium throughout different incubations. At time 0 (start of the experimental incubations), monocultured LNCaP cells were refed with experimental medium supplemented with 100 nM R1881 (methyltrienolone; Life Science Products), a synthetic androgen analog, or with medium conditioned by OHS cells. The conditioned medium had been collected from OHS monocultures that had been seeded in a 10-fold higher number per volume medium compared to the corresponding cell number of the LNCaP/OHS cocultures, and grown for 48 h (relative to time 0) in experimental medium. This medium was subsequently diluted 1:10 in either fresh experimental medium or in medium obtained from standard LNCaP monocultures after 48 h of incubation (relative to time 0) in experimental medium, before the application onto monocultured LNCaP cells.
To be able to analyze LNCaP signaling pathways activated by direct contact with OHS cells, LNCaP cells were isolated from cocultures by immunomagnetic selection [Forus et al., 1999, Fodstad et al., 2001, Bruland et al., 2005, Tveito et al., 2007]. This rapid and simple procedure enables specific selection of target cells for further analytical applications. Subsequent multiplex profiling of kinase activity was performed using flow-through, porous microarrays with peptide substrates (PamChip® peptide arrays; PamGene International B.V., www.pamgene.com), a novel platform that allows rapid, real-time measurements of phosphopeptide signatures generated by the biological samples.
Androgens are critical regulators of prostate carcinoma progression. Most patients respond to androgen ablation therapy, but only temporarily, also at bone metastasis sites. Until recently, the regulatory program mediated by the androgen receptor in prostate cancer has been elusive [Dehm & Tindall, 2006]. To simulate the complex processes involved in aberrant activation of the androgen signaling axis upon disease progression of prostate cancer [Feldman & Feldman, 2001, Attard et al., 2006], our experimental setting included LNCaP cells treated with a synthetic androgen analog (R1881, 100 nM) to observe whether androgen receptor-mediated signaling pathways might be different from those activated by OHS-directed influence.
The LNCaP samples were given denotations in accordance with their biological context: ‘direct’ (cells from LNCaP/OHS cocultures), ‘paracrine 1’ (cells treated with OHS-conditioned medium mixed with fresh medium), ‘paracrine 2’ (cells treated with OHS-conditioned medium mixed with medium conditioned by LNCaP cells), and ‘androgenic’ (cells treated with the synthetic androgen analog), in addition to baseline (untreated reference cells).
To identify regulatory mechanisms underlying the affinity of prostate cancer to bone, the substrate phosphorylation state generated by each LNCaP entity (‘direct’, ‘paracrine’, ‘androgenic’) was calculated with respect to baseline. […]

## C[C@]1(O)CC[C@H]2[C@@H]3CCC4=CC(=O)CCC4=C3C=C[C@@]21C [R1881, methyltrienolone]
  ANXA1_y20/t23 phosphopeptide fold change (log2) relative to LNCaP baseline: —
  CD79A_y182/y188 phosphopeptide fold change (log2) relative to LNCaP baseline: —
  CDK2_t14/y_5 phosphopeptide fold change (log2) relative to LNCaP baseline: —
  CHRNB1_y390 phosphopeptide fold change (log2) relative to LNCaP baseline: 1.57 fold change (log2)
  CREBl_y134/s133 phosphopeptide fold change (log2) relative to LNCaP baseline: 1.47 fold change (log2)
  CTTN1_y477/y483 phosphopeptide fold change (log2) relative to LNCaP baseline: —
  CTTN1_y499 phosphopeptide fold change (log2) relative to LNCaP baseline: —
  DDRl_y792/y796/y797 phosphopeptide fold change (log2) relative to LNCaP baseline: —
  EGFR_y1110 phosphopeptide fold change (log2) relative to LNCaP baseline: —
  EGFR_y1197 phosphopeptide fold change (log2) relative to LNCaP baseline: 1.94 fold change (log2)
  ENO2_y43 phosphopeptide fold change (log2) relative to LNCaP baseline: —
  EPHA2_y772 phosphopeptide fold change (log2) relative to LNCaP baseline: —
  EPHA7_y608/y614 phosphopeptide fold change (log2) relative to LNCaP baseline: —
  EPHB1_y778 phosphopeptide fold change (log2) relative to LNCaP baseline: —
  EPOR_y368 phosphopeptide fold change (log2) relative to LNCaP baseline: —
  EPOR_y426 phosphopeptide fold change (log2) relative to LNCaP baseline: —
  ERBB2_y877 phosphopeptide fold change (log2) relative to LNCaP baseline: —
  ERBB2_y1248 phosphopeptide fold change (log2) relative to LNCaP baseline: —
  ERBB4_y1284 phosphopeptide fold change (log2) relative to LNCaP baseline: 3.31 fold change (log2)
  FAK2_y579/y580 phosphopeptide fold change (log2) relative to LNCaP baseline: —
  FAK_y576/y577 phosphopeptide fold change (log2) relative to LNCaP baseline: —
  FER_y714 phosphopeptide fold change (log2) relative to LNCaP baseline: —
  FES_y713 phosphopeptide fold change (log2) relative to LNCaP baseline: —
  FGFR2_y769 phosphopeptide fold change (log2) relative to LNCaP baseline: —
  FGFR3_y760 phosphopeptide fold change (log2) relative to LNCaP baseline: —
  FRK_y387 phosphopeptide fold change (log2) relative to LNCaP baseline: —
  GSK3B_y216 phosphopeptide fold change (log2) relative to LNCaP baseline: 1.15 fold change (log2)
  IRS2_y919 phosphopeptide fold change (log2) relative to LNCaP baseline: —
  JAK1_y1022/y1023 phosphopeptide fold change (log2) relative to LNCaP baseline: —
  LAT_y200 phosphopeptide fold change (log2) relative to LNCaP baseline: —
  LAT_y255 phosphopeptide fold change (log2) relative to LNCaP baseline: —
  LCK_y394 phosphopeptide fold change (log2) relative to LNCaP baseline: —
  LTK_y772/y776/y777 phosphopeptide fold change (log2) relative to LNCaP baseline: 1.20 fold change (log2)
  MAPK10 phosphopeptide fold change (log2) relative to LNCaP baseline: —
  MAPK12_t183/y185 phosphopeptide fold change (log2) relative to LNCaP baseline: —
  MET_y1230/y1234/y1235 phosphopeptide fold change (log2) relative to LNCaP baseline: —
  MST1R_y1353 phosphopeptide fold change (log2) relative to LNCaP baseline: —
  MST1R_y1356/y1360 phosphopeptide fold change (log2) relative to LNCaP baseline: —
  NTRK2_y702/y706/y707 phosphopeptide fold change (log2) relative to LNCaP baseline: —
  PDGFRB_y579/y581 phosphopeptide fold change (log2) relative to LNCaP baseline: —
  PDGFRB_y716 phosphopeptide fold change (log2) relative to LNCaP baseline: —
  PDPK1_y9 phosphopeptide fold change (log2) relative to LNCaP baseline: —
  PDPK1_y373/y376 phosphopeptide fold change (log2) relative to LNCaP baseline: —
  PECAM1_y713 phosphopeptide fold change (log2) relative to LNCaP baseline: —
  PFKFB1_s33 phosphopeptide fold change (log2) relative to LNCaP baseline: 1.36 fold change (log2)
  PIK3R1_y607/s608 phosphopeptide fold change (log2) relative to LNCaP baseline: —
  PRRX2_y214 phosphopeptide fold change (log2) relative to LNCaP baseline: —
  PTPN11_y542 phosphopeptide fold change (log2) relative to LNCaP baseline: 2.94 fold change (log2)
  PXN_y31 phosphopeptide fold change (log2) relative to LNCaP baseline: —
  PXN_y118 phosphopeptide fold change (log2) relative to LNCaP baseline: —
  RAF1_s337/s338/y339/y340 phosphopeptide fold change (log2) relative to LNCaP baseline: 1.14 fold change (log2)
  RASA_y460 phosphopeptide fold change (log2) relative to LNCaP baseline: —
  RB1_s807/s811 phosphopeptide fold change (log2) relative to LNCaP baseline: 3.07 fold change (log2)
  RET_y1029 phosphopeptide fold change (log2) relative to LNCaP baseline: —
  SYN1_s9 phosphopeptide fold change (log2) relative to LNCaP baseline: 1.20 fold change (log2)
  TEC_y519 phosphopeptide fold change (log2) relative to LNCaP baseline: —
  ZAP70_y492/y493 phosphopeptide fold change (log2) relative to LNCaP baseline: —
